Experimental data taken from article PMC7232201 (Microorganisms, 2020).
Counter-ions that a name gives are not always drawn.

The compounds below were run against T1, ArsR (Helicobacter pylori, UniProt O24973) (assay: isothermal titration calorimetry). Details: read-out: ITC ^a / Kd.
T1 construct: expressed in E. coli BL21(DE3)
Type: binding

T1 sequence (O24973 whole entry): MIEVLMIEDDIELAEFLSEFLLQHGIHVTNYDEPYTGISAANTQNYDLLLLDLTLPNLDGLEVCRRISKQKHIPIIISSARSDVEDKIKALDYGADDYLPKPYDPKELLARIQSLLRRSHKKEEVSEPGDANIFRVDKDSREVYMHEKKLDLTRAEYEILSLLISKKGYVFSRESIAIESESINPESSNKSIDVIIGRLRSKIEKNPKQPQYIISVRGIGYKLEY

Compound	Kd [µM]
CCCCCN(CCCCC)C(=O)C(CCC(=O)O)NC(=O)c1ccc(Cl)c(Cl)c1 (stereo not drawn) [Lorglumide sodium salt]	0.67
CC[N+](C)(CC)CCC[n+]1c(-c2ccccc2)c2cc(N)ccc2c2ccc(N)cc21 [Propidium iodide]	18
C[C@H](CCC(=O)O)[C@H]1CC[C@H]2[C@@H]3CC[C@@H]4C[C@H](O)CC[C@]4(C)[C@H]3CC[C@]12C [Lithocholic acid]	4.9
